Experimental data reported in patent publication US10660877B2 (BRISTOL-MYERS SQUIBB COMPANY, priority 2016, dated 2020).
pIC50: −log10 of the molar value. Like-named read-outs stand apart in the source and are kept apart here.

Key:
human TLR8 = human TLR8 (Homo sapiens (Human), UniProt Q9NR97); test: TLR8 inhibition reporter assay (HEK-Blue cells, SEAP reporter, R848 stimulation);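 note: compounds tested from 0.05 nM to 50 µM, 22 h at 37 °C, SEAP measured with HEK-Blue Detection, inhibition relative to agonist plus DMSO versus a known inhibitor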
human TLR7 = human TLR7 (Homo sapiens (Human), UniProt Q9NYK1); test: TLR7 inhibition reporter assay (HEK-Blue cells, SEAP reporter, gardiquimod stimulation); type: cell-based
human TLR9 = human TLR9 (Homo sapiens (Human), UniProt Q9NR96); test: TLR9 inhibition reporter assay (HEK-Blue cells, SEAP reporter, ODN2006 stimulation);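 note: compounds tested over 0.05 nM to 50 µM, 22 h incubation, inhibition taken as SEAP signal drop from agonist plus DMSO wells toward a known inhibitor control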
[1] = read-out: TLR8 IC50, HEK-Blue cells overexpressing human TLR8, R848 15.9 μM
[2] = HEK-Blue cells overexpressing human TLR7, gardiquimod 7.5 μM
[3] = read-out: TLR9 IC50, HEK-Blue cells overexpressing human TLR9, ODN2006 5 nM

Sequence of human TLR9 (Q9NR96 26-1032): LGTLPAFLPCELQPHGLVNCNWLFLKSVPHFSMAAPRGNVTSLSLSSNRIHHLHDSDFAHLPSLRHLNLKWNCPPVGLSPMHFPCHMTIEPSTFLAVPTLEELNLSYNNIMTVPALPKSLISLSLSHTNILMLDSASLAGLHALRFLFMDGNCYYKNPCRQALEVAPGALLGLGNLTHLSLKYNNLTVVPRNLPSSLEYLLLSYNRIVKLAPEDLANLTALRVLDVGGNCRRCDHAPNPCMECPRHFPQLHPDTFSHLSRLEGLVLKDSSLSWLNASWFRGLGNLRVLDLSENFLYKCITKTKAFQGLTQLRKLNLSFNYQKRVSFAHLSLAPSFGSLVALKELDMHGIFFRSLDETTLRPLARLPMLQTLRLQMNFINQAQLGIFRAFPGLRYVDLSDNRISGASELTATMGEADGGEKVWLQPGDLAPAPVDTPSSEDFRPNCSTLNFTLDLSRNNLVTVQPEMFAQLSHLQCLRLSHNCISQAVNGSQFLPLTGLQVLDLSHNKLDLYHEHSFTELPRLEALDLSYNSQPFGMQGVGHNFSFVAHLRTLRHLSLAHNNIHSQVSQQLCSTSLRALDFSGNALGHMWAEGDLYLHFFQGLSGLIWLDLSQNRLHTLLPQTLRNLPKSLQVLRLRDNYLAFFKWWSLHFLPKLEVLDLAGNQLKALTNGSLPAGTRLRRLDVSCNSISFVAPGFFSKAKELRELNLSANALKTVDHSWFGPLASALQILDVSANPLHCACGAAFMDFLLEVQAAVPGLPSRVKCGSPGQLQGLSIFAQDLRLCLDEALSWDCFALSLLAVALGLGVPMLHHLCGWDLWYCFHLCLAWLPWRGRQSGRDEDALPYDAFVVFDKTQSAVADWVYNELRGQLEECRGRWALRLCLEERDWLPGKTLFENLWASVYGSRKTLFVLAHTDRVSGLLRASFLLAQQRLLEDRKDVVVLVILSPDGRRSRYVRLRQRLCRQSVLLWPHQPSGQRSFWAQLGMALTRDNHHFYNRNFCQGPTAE
Sequence of human TLR8 (Q9NR97 27-1041): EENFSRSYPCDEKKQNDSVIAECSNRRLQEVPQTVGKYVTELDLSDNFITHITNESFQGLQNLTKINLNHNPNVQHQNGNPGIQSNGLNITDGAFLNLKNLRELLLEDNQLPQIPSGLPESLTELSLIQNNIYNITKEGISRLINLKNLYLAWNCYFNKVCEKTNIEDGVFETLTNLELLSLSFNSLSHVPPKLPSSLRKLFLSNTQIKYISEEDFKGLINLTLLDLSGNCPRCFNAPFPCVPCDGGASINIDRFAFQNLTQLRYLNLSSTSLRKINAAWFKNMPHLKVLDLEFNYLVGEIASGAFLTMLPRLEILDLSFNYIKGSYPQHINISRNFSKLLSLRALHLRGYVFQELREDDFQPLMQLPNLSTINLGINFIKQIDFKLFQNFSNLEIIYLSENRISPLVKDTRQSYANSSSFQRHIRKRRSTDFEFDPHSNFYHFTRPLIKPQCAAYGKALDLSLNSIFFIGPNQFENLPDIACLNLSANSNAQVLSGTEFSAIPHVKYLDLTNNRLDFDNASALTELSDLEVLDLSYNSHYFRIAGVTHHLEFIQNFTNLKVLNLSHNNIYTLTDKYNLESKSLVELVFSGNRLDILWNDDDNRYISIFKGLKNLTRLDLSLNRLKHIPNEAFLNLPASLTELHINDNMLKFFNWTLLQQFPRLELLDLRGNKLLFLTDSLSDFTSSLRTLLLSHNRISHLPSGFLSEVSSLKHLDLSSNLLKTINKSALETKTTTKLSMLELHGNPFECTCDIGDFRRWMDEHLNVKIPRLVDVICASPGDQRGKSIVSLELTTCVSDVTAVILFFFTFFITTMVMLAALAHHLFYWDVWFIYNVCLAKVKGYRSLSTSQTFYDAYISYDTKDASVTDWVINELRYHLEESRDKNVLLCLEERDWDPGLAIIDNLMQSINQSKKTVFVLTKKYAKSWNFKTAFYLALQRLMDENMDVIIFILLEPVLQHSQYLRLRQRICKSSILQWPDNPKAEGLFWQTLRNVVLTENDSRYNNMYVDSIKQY
Sequence of human TLR7 (Q9NYK1 27-1049): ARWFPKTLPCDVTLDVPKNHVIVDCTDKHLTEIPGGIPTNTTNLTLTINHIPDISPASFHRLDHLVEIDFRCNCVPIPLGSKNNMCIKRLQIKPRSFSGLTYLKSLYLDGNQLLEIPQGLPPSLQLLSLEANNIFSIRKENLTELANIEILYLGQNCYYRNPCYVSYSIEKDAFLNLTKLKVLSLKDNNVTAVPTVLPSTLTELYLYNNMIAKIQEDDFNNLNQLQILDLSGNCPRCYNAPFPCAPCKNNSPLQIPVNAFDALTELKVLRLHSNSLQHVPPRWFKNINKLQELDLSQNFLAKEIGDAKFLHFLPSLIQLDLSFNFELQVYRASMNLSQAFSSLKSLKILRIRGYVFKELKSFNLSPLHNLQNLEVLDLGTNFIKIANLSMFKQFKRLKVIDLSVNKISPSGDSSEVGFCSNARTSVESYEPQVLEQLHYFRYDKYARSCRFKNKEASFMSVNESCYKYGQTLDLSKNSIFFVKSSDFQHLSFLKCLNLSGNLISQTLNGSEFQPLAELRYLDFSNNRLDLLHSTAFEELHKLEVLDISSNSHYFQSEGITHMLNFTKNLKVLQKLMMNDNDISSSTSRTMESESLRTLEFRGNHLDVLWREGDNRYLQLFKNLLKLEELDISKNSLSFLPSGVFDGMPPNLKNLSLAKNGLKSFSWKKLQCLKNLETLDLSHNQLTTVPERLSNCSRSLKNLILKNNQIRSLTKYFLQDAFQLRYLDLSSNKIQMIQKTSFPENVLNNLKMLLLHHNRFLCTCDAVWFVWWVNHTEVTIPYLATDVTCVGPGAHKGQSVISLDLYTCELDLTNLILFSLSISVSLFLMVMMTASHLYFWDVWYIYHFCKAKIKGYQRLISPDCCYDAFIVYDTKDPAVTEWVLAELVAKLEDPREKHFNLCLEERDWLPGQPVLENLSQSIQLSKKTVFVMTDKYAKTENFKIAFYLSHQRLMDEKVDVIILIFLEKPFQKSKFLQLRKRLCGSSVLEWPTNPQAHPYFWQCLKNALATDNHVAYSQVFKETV

Row | SMILES | pIC50 (human TLR8; [1]) | pIC50 (human TLR7; [2]) | pIC50 (human TLR9; [3]) | pIC50 (human TLR8; read-out: TLR8 IC50, HEK-Blue cells, R848 15.9 μM) | pIC50 (human TLR7; HEK-Blue cells, gardiquimod 7.5 μM) | pIC50 (human TLR9; read-out: TLR9 IC50, HEK-Blue cells, ODN2006 5 nM)
1 | Cc1cc(-c2[nH]c3ccc(C4CCN(CC(F)F)CC4)cc3c2C(C)C)cc(C)n1 [Example 327, 5-(1-(2,2-difluoroethyl)piperidin-4-yl)-2-(2,6-dimethylpyridin-4-yl)-3-isopropyl-1H-indole] | 7.28 | 7.81 | 5.43 | – | – | –
2 | Cc1cc(-c2[nH]c3ccc(C4CCN(CC(C)(C)O)CC4)cc3c2C2CC2)cc(C)n1 [Example 668, 1-(4-(3-cyclopropyl-2-(2,6-dimethylpyridin-4-yl)-1H-indol-5-yl)piperidin-1-yl)-2-methylpropan-2-ol] | 8.12 | 7.84 | 6.83 | – | – | –
3 | COc1cc(-c2[nH]c3ccc(C4CCN(C5CCOCC5)CC4)cc3c2C(C)C)ccn1 [Example 720, 3-isopropyl-2-(2-methoxypyridin-4-yl)-5-(1-(tetrahydro-2H-pyran-4-yl)piperidin-4-yl)-1H-indole] | 7.08 | 7.29 | 5.54 | – | – | –
4 | Cc1cc(-c2[nH]c3cc(F)c(C4CCNCC4)cc3c2C(C)C)cc(C)n1 [Example 78, 2-(2,6-dimethylpyridin-4-yl)-6-fluoro-3-isopropyl-5-(piperidin-4-yl)-1H-indole] | 8.57 | 9.10 | 6.84 | – | – | –
5 | Cc1cc(-c2[nH]c3ccc(C4CCN(Cc5cc(C)on5)CC4)cc3c2C(C)C)cc(C)n1 [Example 443, 3-((4-(2-(2,6-dimethylpyridin-4-yl)-3-isopropyl-1H-indol-5-yl)piperidin-1-yl)methyl)-5-methylisoxazole] | 7.96 | 7.64 | 5.77 | – | – | –
6 | Cc1cc(-c2[nH]c3ccc(C4CCN(C(=O)CN(CCO)C(C)C)CC4)cc3c2C(C)C)cc(C)n1 [Example 415, 1-(4-(2-(2,6-dimethylpyridin-4-yl)-3-isopropyl-1H-indol-5-yl)piperidin-1-yl)-2-((2-hydroxyethyl)(isopropyl)amino)ethan-1-one] | 7.40 | 8.10 | 5.73 | – | – | –
7 | Cc1cc(-c2[nH]c3ccc(C4CCN(C(=O)Cc5csc(C)n5)CC4)cc3c2C(C)C)cc(C)n1 | 6.91 | 7.79 | 4.54 | – | – | –
8 | CCc1c(-c2ccnc(OC)c2)[nH]c2ccc(C3CCN(C4CCN(C(C)C)CC4)CC3)cc12 [Example 786, 3-ethyl-5-(1′-isopropyl-[1,4′-bipiperidin]-4-yl)-2-(2-methoxypyridin-4-yl)-1H-indole] | 7.30 | 6.51 | 6.69 | – | – | –
9 | CCc1c(-c2ccnc(OC)c2)[nH]c2ccc(C3CCN([C@H]4CCCNCC4)CC3)cc12 [Example 794, (S)-5-(1-(azepan-4-yl)piperidin-4-yl)-3-ethyl-2-(2-methoxypyridin-4-yl)-1H-indole] | 7.39 | 6.17 | 5.96 | – | – | –
10 | COCCN(C)CC(=O)N1CCC(c2ccc3[nH]c(-c4cc(C)nc(C)c4)c(C(C)C)c3c2)CC1 [Example 148, 1-(4-(2-(2,6-dimethylpyridin-4-yl)-3-isopropyl-1H-indol-5-yl)piperidin-1-yl)-2-((2-methoxyethyl)(methyl)amino)ethan-1-one] | 8.01 | 8.66 | 6.05 | – | – | –
11 | Cc1cc(-c2[nH]c3ccc(C4CCN(C(=O)CCN(C)C)CC4)cc3c2C(C)C)cc(C)n1 [Example 97, 3-(dimethylamino)-1-(4-(2-(2,6-dimethylpyridin-4-yl)-3-isopropyl-1H-indol-5-yl)piperidin-1-yl)propan-1-one] | 8.23 | 8.89 | 6.40 | – | – | –
12 | Cc1cc(-c2[nH]c3ccc(C4CCN(C5CC(C)OC6(CC6)C5)CC4)cc3c2C(C)C)cc(C)n1 (stereo not drawn) [Example 456, 2-(2,6-dimethylpyridin-4-yl)-3-isopropyl-5-(1-(5-methyl-4-oxaspiro[2.5]octan-7-yl)piperidin-4-yl)-1H-indole] | 8.24 | 8.38 | 6.47 | – | – | –
13 | Cc1cc(-c2[nH]c3ccc(C4CCN(S(=O)(=O)c5ccc(Cl)cc5)CC4)cc3c2C(C)C)ccn1 [Example 542, 5-(1-((4-chlorophenyl)sulfonyl)piperidin-4-yl)-3-isopropyl-2-(2-methylpyridin-4-yl)-1H-indole] | 5.83 | 5.93 | < 4.30 | – | – | –
14 | COc1cc(-c2[nH]c3ccc(C4CCN(C(=O)CN(C)C)CC4)cc3c2C(C)C)ccn1 [Example 521, 2-(dimethylamino)-1-(4-(3-isopropyl-2-(2-methoxypyridin-4-yl)-1H-indol-5-yl)piperidin-1-yl)ethan-1-one] | 6.94 | 7.38 | 5.43 | – | – | –
15 | Cc1nccc(-c2[nH]c3ccc(C4CCN(Cc5ncn(C)n5)CC4)cc3c2C(C)C)c1F [Example 732, 2-(3-fluoro-2-methylpyridin-4-yl)-3-isopropyl-5-(1-((1-methyl-1H-1,2,4-triazol-3-yl)methyl)piperidin-4-yl)-1H-indole] | 7.99 | 7.65 | 5.00 | – | – | –
16 | COc1cc(OC)nc(CN2CCC(c3ccc4[nH]c(-c5cc(C)nc(C)c5)c(C(C)C)c4c3)CC2)n1 [Example 447, 5-(1-((4,6-dimethoxypyrimidin-2-yl)methyl)piperidin-4-yl)-2-(2,6-dimethylpyridin-4-yl)-3-isopropyl-1H-indole] | 8.15 | 8.27 | 6.35 | – | – | –
17 | Cc1cc(-c2[nH]c3ccc(C4CCN(Cc5cnc[nH]5)CC4)cc3c2C(C)C)c(N)cn1 [Example 823, 4-(5-(1-((1H-imidazol-5-yl)methyl)piperidin-4-yl)-3-isopropyl-1H-indol-2-yl)-6-methylpyridin-3-amine] | – | – | – | 8.12 | 7.44 | 6.40
18 | Cc1cc(-c2[nH]c3ccc(C4CCN(CC(=O)NC56C[C@@H]7C[C@@H](CC(O)(C7)C5)C6)CC4)cc3c2C(C)C)cc(C)n1 [Example 225, 2-(4-(2-(2,6-dimethylpyridin-4-yl)-3-isopropyl-1H-indol-5-yl)piperidin-1-yl)-N-((1r,3 s,5R,7S)-3-hydroxyadamantan-1-yl)acetamide] | 7.57 | 7.94 | 6.19 | – | – | –
19 | CCc1c(-c2ccnc(C)c2)[nH]c2ccc(C3CCN(C(=O)CCN(C)C)CC3)cc12 [Example 594, 3-(dimethylamino)-1-(4-(3-ethyl-2-(2-methylpyridin-4-yl)-1H-indol-5-yl)piperidin-1-yl)propan-1-one] | 7.40 | 7.52 | 6.21 | – | – | –
20 | Cc1cc(-c2[nH]c3ccc(C4CCN(C(=O)CCN(C)C5COC5)CC4)cc3c2C(C)C)cc(C)n1 [Example 589, 1-(4-(2-(2,6-dimethylpyridin-4-yl)-3-isopropyl-1H-indol-5-yl)piperidin-1-yl)-3-(methyl(oxetan-3-yl)amino)propan-1-one] | 7.56 | 8.33 | 5.68 | – | – | –
21 | Cc1cc(-c2[nH]c3ccc(C4CCN(C(=O)CNC5CCC5)CC4)cc3c2C(C)C)cc(C)n1 [Example 334, 2-(cyclobutylamino)-1-(4-(2-(2,6-dimethylpyridin-4-yl)-3-isopropyl-1H-indol-5-yl)piperidin-1-yl)ethan-1-one] | 8.12 | 8.64 | 6.32 | – | – | –
22 | Cc1cc(-c2[nH]c3ccc(C4CCN(C(=O)C(C)(C)O)CC4)cc3c2C(C)C)cc(C)n1 [Example 173, 1-(4-(2-(2,6-dimethylpyridin-4-yl)-3-isopropyl-1H-indol-5-yl)piperidin-1-yl)-2-hydroxy-2-methylpropan-1-one] | 7.05 | 8.21 | 4.36 | – | – | –
23 | Cc1cc(-c2[nH]c3ccc(C4CCN(C(=O)CN5CC[C@@H](O)C5)CC4)cc3c2C(C)C)cc(C)n1 [Example 391, (R)-1-(4-(2-(2,6-dimethylpyridin-4-yl)-3-isopropyl-1H-indol-5-yl)piperidin-1-yl)-2-(3-hydroxypyrrolidin-1-yl)ethan-1-one] | 8.19 | 8.89 | 6.16 | – | – | –
24 | CCc1c(-c2ccnc(N)c2O)[nH]c2ccc(C3CCNCC3)cc12 [Example 71, 2-amino-4-(3-ethyl-5-(piperidin-4-yl)-1H-indol-2-yl)pyridin-3-ol] | 5.25 | 5.14 | 5.55 | – | – | –
25 | Cc1cc(-c2[nH]c3ccc(C4CCN(C(=O)CN(C)C5COC5)CC4)cc3c2C(C)C)c(F)cn1 [Example 678, 1-(4-(2-(5-fluoro-2-methylpyridin-4-yl)-3-isopropyl-1H-indol-5-yl)piperidin-1-yl)-2-(methyl(oxetan-3-yl)amino)ethan-1-one] | 7.51 | 7.91 | < 4.30 | – | – | –
26 | CNC(=O)CN1CCC(c2ccc3[nH]c(-c4cc(C)nc(C)c4)c(CC(F)F)c3c2)CC1 [Example 532, 2-(4-(3-(2,2-difluoroethyl)-2-(2,6-dimethylpyridin-4-yl)-1H-indol-5-yl)piperidin-1-yl)-N-methylacetamide] | 7.09 | 7.76 | 6.09 | – | – | –
27 | CCc1c(-c2cc(C)nc(C)c2)[nH]c2ccc(C3CCNCC3)cc12 [Example 2, 2-(2,6-dimethylpyridin-4-yl)-3-ethyl-5-(piperidin-4-yl)-1H-indole] | 7.95 | 8.33 | 6.61 | – | – | –
28 | CCc1c(-c2ccncc2)[nH]c2ccc(C3CCNCC3)cc12 [Example 60, 3-ethyl-5-(piperidin-4-yl)-2-(pyridin-4-yl)-1H-indole] | 7.43 | 7.02 | 6.17 | – | – | –
29 | Cc1cc(-c2[nH]c3ccc(C4CCN(C(=O)CN(C)C5CCCCC5)CC4)cc3c2C(C)C)cc(C)n1 [Example 384, 2-(cyclohexyl (methyl)amino)-1-(4-(2-(2,6-dimethylpyridin-4-yl)-3-isopropyl-1H-indol-5-yl)piperidin-1-yl)ethan-1-one] | 7.24 | 7.84 | 6.20 | – | – | –
